The subject of test [1] is human Kv1.3 channel (hKv1.3). The conditions noted are these: read-out: IC50 on Kv1.3; positive control applied at a concentration equivalent to its IC50; no reference given; cited from earlier work.
Method: (§4) Voltage protocols: For measurement of Kv1.1 to 1.3 currents, voltage steps to +50 mV were applied from a holding potential of −120 mV and the peak current was measured every 15 s. For Kv1.3 currents, 15-ms-long depolarizing pulses were applied. For Kv1.1, 50-ms-long–activating stimuli were used. Kv1.2 currents were evoked by 200-ms-long pulses. […] The remaining current fraction at a given molar concentration was calculated ...
The test system of test [2] is human Kv1.1 channel (hKv1.1). The conditions noted are these: read-out: IC50 on Kv1.1; positive control applied at a concentration equivalent to its IC50; no reference given; cited from earlier work.
Method: as §4
Test [3] deals with human Kv1.3 channel (hKv1.3). It counts as cell-based. The settings on record: TEA+ 10 mM, positive control; human lymphocytes. The procedure: (§1) Human Kv1.3 currents were recorded from activated peripheral blood mononuclear cells (see below) 3 to 4 days after activation. Heparinized human peripheral venous blood was obtained from healthy volunteers. Mononuclear cells were separated through Histopaque-1077 density gradient centrifugation. Collected cells were washed twice with Ca^2+- and Mg^2+-free Hanks’ solution containing 25 mM Hepes buffer, pH 7.4. Cells were cultured for 3 to 4 days in 24-well culture plates in a 5% CO2 incubator at 37 °C, in RPMI 1640 medium supplemented with 10% fetal calf serum (Sigma-Aldrich), 100 μg/ml penicillin, 100 μg/ml streptomycin, and 2 mM L-glutamine (density, 0.5 × 10^6 cells per ml). Phytohemagglutinin A (Sigma-Aldrich) was added to the medium at 10 μg/ml to amplify the Kv1.3 expression. Cells were washed gently twice with 2 ml of ECS for the patch-clamp experiments.
(§2) Conventional whole-cell patch-clamp electrophysiology was used to record ionic currents. Micropipettes were pulled from GC150F-7.5 borosilicate capillaries (Harvard Apparatus) with tip diameters between 0.5 and 1 μm resulting in a tip resistance of 2 to 8 MΩ in the extracellular (bath) solution. All measurements were carried out by using Axopatch 200B amplifier connected to a personal computer using Axon Digidata 1550A data acquisition hardware and Pclamp10.7 software (https://support.moleculardevices.com/s/article/Axon-pCLAMP-10-Electrophysiology-Data-Acquisition-Analysis-Software-Download-Page). The holding potential was −120 mV. Records were discarded when leak at the holding potential was >10% of peak current at the test potential. Experiments were performed at room temperature (20–24 °C). Before analysis, whole-cell current traces were corrected for ohmic leakage and digitally filtered with a three-point boxcar smoothing filter.
Solutions: all salts and components of the solutions were purchased from Sigma Aldrich. […]
Native peptides, phage-expressed peptides, and positive controls used for them were dissolved in ECS supplemented with 0.1 mg/ml bovine serum albumin (BSA; Sigma-Aldrich Hungary). Bath perfusion around the measured cell with different extracellular solutions was achieved using a gravity flow micro perfusion system using a rate of 0.5 ml/min. […]
(§3) Voltage protocols: For measurement of Kv1.1 to 1.3 currents, voltage steps to +50 mV were applied from a holding potential of −120 mV and the peak current was measured every 15 s. […] The remaining current fraction at a given molar concentration was calculated as I/I0, where I0 is the peak current in the absence and I is the peak current at equilibrium block or […] after ∼2 min perfusion by the investigated peptide/phage.

Test [4] concerns the target T1, KcsA-Kv1.3 T-only chimera (Streptomyces lividans, UniProt P0A334, A54D/A57S/G53D/G56T/I60S/L59F/Q58G/R52A/R64D/T61S/Y62I).
T1 construct: made in house; host or cells: E. coli XL1-Blue (pQE30)
T1 sequence (P0A334 1-160 R52A/G53D/A54D/G56T/A57S/Q58G/L59F/I60S/T61S/Y62I/R64D): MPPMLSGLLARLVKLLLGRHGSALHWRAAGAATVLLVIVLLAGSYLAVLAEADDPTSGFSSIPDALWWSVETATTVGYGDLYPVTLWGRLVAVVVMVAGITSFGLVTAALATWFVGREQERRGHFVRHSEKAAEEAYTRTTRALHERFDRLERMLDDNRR
As to the kind of experiment: Phage ELISA-binding assay, KcsA-Kv1.3 T-only. Set-up: species or system human Kv1.3 turret in Streptomyces lividans KcsA. The settings on record: toxin displayed on M13 phage. Here is the method: Phage display test solutions were prepared according to routine phage display protocols ([62]). Phosphorylated and annealed oligonucleotides encoding the peptide construct were ligated into linearized pAS62 phagemid vector (https://patents.google.com/patent/WO2022144560A1/en) at a vector/insert ratio of 1:3. The final phagemid construct harbored a signal sequence followed by the peptide of interest, a linker sequence ([…]), and the C-terminal part of the P3 coat protein (amino acids: 216-424 of NP_510891.1). […] The particle concentrations of phage solutions were determined using a NanoDrop One C (Thermo Fisher Scientific) spectrophotometer. The phage particle concentration was assessed according to the formula: (A268–A320) × 5 × 10^12 particles/ml ([62]). […]
Phage stock solutions were diluted to working concentration with phage resuspension buffer supplemented with 2 mM DDM. […] Following blocking, the wells were washed 4× with washing buffer (300 μl TBS-Tween, 0.1% v/v) using a Wellwash Versa microplate washer (Thermo Fisher Scientific); then 50 μl phage solution (in TBS-BSA-Tween, 0.1% v/v, 2 mM DDM) at determined phage concentration was added to the wells and incubated for 1 h at room temperature on a horizontal shaker. […]
On the technique in general: An ELISA detects its analyte on a solid surface through an enzyme-linked reagent.

The test system of test [5] is human Kv1.3 channel (hKv1.3). As to the kind of experiment: Whole-cell patch-clamp of phage-displayed toxins, hKv1.3 in human lymphocytes. It counts as cell-based. The conditions noted are these: perfusion concentration; phage-displayed toxin; experimentally titrated; N = 3. Here is the method:
as §1, §2
Solutions: all salts and components of the solutions were purchased from Sigma Aldrich. The extracellular (bath) solution (ECS) contained 145 mM NaCl, 5 mM KCl, 2.5 mM CaCl2, 1 mM MgCl2, 10 mM Hepes, and 5.5 mM glucose (pH 7.35 with NaOH), while the intracellular (pipette) solution (ICS) contained 140 mM KF, 2 mM MgCl2, 1 mM CaCl2, 11 mM EGTA, and 10 mM Hepes (pH 7.22 with KOH). The osmolarity of the ECS and ICS were 302 mOsM.
Native peptides, phage-expressed peptides, and positive controls used for them were dissolved in ECS supplemented with 0.1 mg/ml bovine serum albumin (BSA; Sigma-Aldrich Hungary). Bath perfusion around the measured cell with different extracellular solutions was achieved using a gravity flow micro perfusion system using a rate of 0.5 ml/min. Excess fluid was removed continuously.
as §3, with “s. For Kv1.3 currents, 15-ms-long depolarizing pulses were applied. For Kv1.1, 50-ms-long–activating stimuli were used. Kv1.2 currents were evoked by 200-ms-long pulses.” for “s.”
Phage display test solutions were prepared according to routine phage display protocols ([62]). Phosphorylated and annealed oligonucleotides encoding the peptide construct were ligated into linearized pAS62 phagemid vector (https://patents.google.com/patent/WO2022144560A1/en) at a vector/insert ratio of 1:3. The final phagemid construct harbored a signal sequence followed by the peptide of interest, a linker sequence ([…]), and the C-terminal part of the P3 coat protein (amino acids: 216-424 of NP_510891.1). Chemically competent XL1-Blue E. coli cells (2022249, Agilent) were transformed with the ligation product and then streaked onto ampicillin (100 μg/ml) containing LB/Amp plates and incubated for 16 h at 37 °C.

Test [6] relates to T+F chimera variant mutated at T84. Nature of the test: Phage binding to T84-mutated T+F chimera, pilot experiment. The settings on record: pilot experiment (not shown). The procedure:
Phage stock solutions were diluted to working concentration with phage resuspension buffer supplemented with 2 mM DDM. For protein immobilization, the following amounts were used in a final volume of 50 μl/well: wt KcsA, 0.1 μg; KcsA-Kv1.1 T-only, 0.005 μg; KcsA-Kv1.1 T+F, 0.02 μg; KcsA-Kv1.2 T-only, 0.01 μg; KcsA-Kv1.2 T+F, 0.1 μg; KcsA-Kv1.3 T-only, 0.01 μg; and KcsA-Kv1.3 T+F, 0.1 μg. Protein samples were diluted in 50 μl of storage buffer (20 mM Tris pH8.0, 300 mM KCl, 2 mM DDM) and were added to the designated wells of a Pierce Clear, 96-Well Nickel Coated Plate (15442, Thermo Fisher Scientific), then incubated for 1 h at room temperature on a horizontal shaker at 130 rpm. The plate was blocked for 1 h at room temperature with 180 μl/well TBS-BSA supplemented with 1 mM DDM. Following blocking, the wells were washed 4× with washing buffer (300 μl TBS-Tween, 0.1% v/v) using a Wellwash Versa microplate washer (Thermo Fisher Scientific); then 50 μl phage solution (in TBS-BSA-Tween, 0.1% v/v, 2 mM DDM) at determined phage concentration was added to the wells and incubated for 1 h at room temperature on a horizontal shaker. […] The light absorbance signal was read at 450 nm with Byonoy absorbance 96 plate reader (Byonoy GmbH).

The test system of test [7] is human Kv1.2 channel (hKv1.2). The settings on record: positive control applied at a concentration equivalent to its IC50; no reference given; cited from earlier work.
Method: as §4

Where no end group is shown, it is not given here.

The source of these data is article PMC11002876, “KcsA-Kv1.x chimeras with complete ligand-binding sites provide improved predictivity for screening selective Kv1.x blockers” (The Journal of Biological Chemistry, 2024).

For orientation: IC50 means the concentration that inhibits the measured activity by half. With `CC[N+](CC)(CC)CC` [TEA+, tetraethylammonium], the IC50 is 10000 µM in test [1] and 300 µM in test [2]. The “inhibition of Kv1.3 current” value in test [3] is given as “approximately 50%”.

On to “HgTX1-phage: HgTx1 fused to the P3 coat protein of M13 phage with an eight amino acid linker (TVIDVKCTSPKQCLPPCKAQFGIRAGAKCMNGKCKCYPH-{GSASSATR-M13 P3 coat protein (216-424)}; not fully specified; ends and bridges not checked)”, for which the “phage binding to KcsA-Kv1.3 T-only, in words” value in test [4] is recorded as “weaker binding”. Also, in test [5], the “phage concentration giving approximate 50% block of hKv1.3 current” value is given as ~1.8 x 10^12 particle/ml.

As to “MTX-expressing phages: MTX displayed on M13 phage (VSCTGSKDCYAPCRKQTGCPNAKCINKSCKCYGC-{GSASSATR-M13 P3 coat protein (216-424)}; not fully specified; ends and bridges not checked)”, the “binding to T+F chimera variant mutated at T84, in words” value in test [6] is listed as “did not diminish when T84 was mutated”.

Take charybdotoxin: in test [7], the half-maximal inhibitory concentration (IC50) was 0.014 µM.
